Test results published in patent publication US8829011B2 (Janssen Pharmaceutica NV, priority 2008, dated 2014).
Where a name gives a salt, the structure may show the parent alone.

Experiments:
[1] = target: T1, human recombinant 5-HT2B receptor (Homo sapiens, UniProt P41595); assay: Affinity for 5-HT2B receptor binding sites (competitive radioligand binding, [3H]mesulergine); settings: membranes of CHO with h5-HT2B, * = tested as hydrochloride salt
T1 construct: expressed in transfected cells; host or cells: CHO
How it was run: (§1)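 Membranes from NIH3T3 cells stably expressing h5-HT2A or CHO cells stably expressing h5-HT2B/h5-HT2C; [3H]ketanserin used for 5-HT2A, [3H]mesulergine for 5-HT2B/2C. Compounds from 10 mM DMSO stocks, final DMSO ≤0.4%. Affinity from sigmoidal inhibition curves fitted by nonlinear regression.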

[2] = target: T2, human recombinant 5-HT2C receptor (Homo sapiens, UniProt P28335); assay: Affinity for 5-HT2C receptor binding sites (competitive radioligand binding, [3H]mesulergine); settings: membranes of CHO with h5-HT2C, * = tested as hydrochloride salt
T2 construct: expressed in transfected cells; host or cells: CHO
T2 sequence (P28335 33-458): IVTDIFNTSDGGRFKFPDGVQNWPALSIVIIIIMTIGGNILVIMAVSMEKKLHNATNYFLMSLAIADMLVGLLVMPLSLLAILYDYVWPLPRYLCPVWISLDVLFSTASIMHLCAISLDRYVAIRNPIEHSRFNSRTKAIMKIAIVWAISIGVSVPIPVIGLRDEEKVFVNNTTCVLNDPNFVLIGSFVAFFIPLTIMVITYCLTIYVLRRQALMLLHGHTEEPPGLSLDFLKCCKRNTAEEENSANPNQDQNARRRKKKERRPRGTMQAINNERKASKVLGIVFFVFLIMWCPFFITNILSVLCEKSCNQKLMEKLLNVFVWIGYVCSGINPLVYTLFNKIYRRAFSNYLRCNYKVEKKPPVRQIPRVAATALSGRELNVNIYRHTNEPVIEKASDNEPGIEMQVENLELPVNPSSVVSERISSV
How it was run: as §1

rat 5-HT7a receptor = target: T3, rat 5-HT7a receptor (Rattus norvegicus, UniProt P32305); assay: Affinity for 5-HT7 receptor binding sites (competition radioligand binding, [3H]5-CT); settings: membranes of HEK-293 cells with rat 5-HT7a; 1 nM [3H]5-CT; * = tested as hydrochloride salt
T3 construct: expressed in transfected cells; host or cells: HEK-293
Procedure: Stock drug solutions (10 mM) were prepared in DMSO (the final assay concentration of DMSO not exceeding 0.4%). Drug dilutions were prepared in assay buffer.
Sigmoidal inhibition curves were generated and fitted by nonlinear regression analysis (GraphPad Prism).
1. Affinity for 5-HT7 Receptor Binding Sites
The affinity of the compounds described in this invention for the 5-HT7 receptor binding site was evaluated by single competition radioligand binding assay. The assay was performed on membranes prepared from HEK-293 cells that had been subjected to stable transfection with the rat 5-HT7a receptor (GB: NM022938). Cells were scraped from the culture plates, suspended in Tris-HCl 50 mM pH 7.5 and collected through centrifugation (1000 rpm for 5 min). The cell pellets were homogenized (Polytron, 15 s, setting 5) in 50 mM Tris-HCl (pH 7.5), 5 mM EDTA. Following centrifugation (15,000 rpm for 25 min), membranes (135 μg protein/mL) were resuspended in the same buffer and incubated for 60 min at RT with 1 nM [^3H]5-CT in the presence of increasing concentration of test compounds. Nonspecific binding was defined in the presence of 10 μM 5-HT. Incubation was stopped by rapid filtration using the cell harvester (Packard). Radioactivity was counted in a TopCount-NXT (Packard). Experiments were conducted in triplicate.

[3] = target: T4, human recombinant 5-HT6 receptor (Homo sapiens, UniProt P50406); assay: Affinity for 5-HT6 receptor binding sites (competitive radioligand binding, [3H]LSD); settings: membranes of HEK-293 with h5-HT6, * = tested as hydrochloride salt
T4 construct: expressed in transfected cells; host or cells: HEK-293
How it was run: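 Membranes from HEK-293 cells stably expressing human 5-HT6, competition against [3H]LSD; nonspecific binding defined with 1 μM clozapine. DMSO ≤0.4% final. Inhibition curves fitted by nonlinear regression.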

[4] = target: T5, human recombinant 5-HT2A receptor (Homo sapiens, UniProt P28223); assay: Affinity for 5-HT2A receptor binding sites (competitive radioligand binding, [3H]ketanserin); settings: membranes of NIH3T3 with h5-HT2A, * = tested as hydrochloride salt
T5 construct: expressed in transfected cells; host or cells: NIH3T3
How it was run: as §1

T4 sequence (P50406 whole entry): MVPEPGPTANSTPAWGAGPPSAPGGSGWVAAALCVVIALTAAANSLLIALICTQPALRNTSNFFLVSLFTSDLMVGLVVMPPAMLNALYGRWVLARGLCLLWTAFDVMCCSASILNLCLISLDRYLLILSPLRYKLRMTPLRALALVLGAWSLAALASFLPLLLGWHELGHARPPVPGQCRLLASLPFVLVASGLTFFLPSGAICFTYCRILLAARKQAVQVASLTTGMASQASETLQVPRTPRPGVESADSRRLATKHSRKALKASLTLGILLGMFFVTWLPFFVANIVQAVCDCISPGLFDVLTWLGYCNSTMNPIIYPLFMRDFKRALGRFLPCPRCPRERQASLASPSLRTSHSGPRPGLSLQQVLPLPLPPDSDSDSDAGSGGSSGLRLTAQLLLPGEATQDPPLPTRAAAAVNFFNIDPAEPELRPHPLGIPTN
T1 sequence (P41595 whole entry): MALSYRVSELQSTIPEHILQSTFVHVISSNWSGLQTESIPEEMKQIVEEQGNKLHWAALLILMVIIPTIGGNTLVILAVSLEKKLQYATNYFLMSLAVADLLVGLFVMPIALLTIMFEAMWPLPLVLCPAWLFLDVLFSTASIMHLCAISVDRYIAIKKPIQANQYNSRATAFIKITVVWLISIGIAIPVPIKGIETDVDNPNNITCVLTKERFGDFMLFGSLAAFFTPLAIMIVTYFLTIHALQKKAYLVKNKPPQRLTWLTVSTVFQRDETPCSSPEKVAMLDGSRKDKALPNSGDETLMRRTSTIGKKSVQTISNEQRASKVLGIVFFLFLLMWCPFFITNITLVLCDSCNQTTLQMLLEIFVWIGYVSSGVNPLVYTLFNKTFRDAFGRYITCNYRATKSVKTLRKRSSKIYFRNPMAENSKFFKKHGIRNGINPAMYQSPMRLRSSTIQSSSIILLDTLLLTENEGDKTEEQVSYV
T5 sequence (P28223 whole entry): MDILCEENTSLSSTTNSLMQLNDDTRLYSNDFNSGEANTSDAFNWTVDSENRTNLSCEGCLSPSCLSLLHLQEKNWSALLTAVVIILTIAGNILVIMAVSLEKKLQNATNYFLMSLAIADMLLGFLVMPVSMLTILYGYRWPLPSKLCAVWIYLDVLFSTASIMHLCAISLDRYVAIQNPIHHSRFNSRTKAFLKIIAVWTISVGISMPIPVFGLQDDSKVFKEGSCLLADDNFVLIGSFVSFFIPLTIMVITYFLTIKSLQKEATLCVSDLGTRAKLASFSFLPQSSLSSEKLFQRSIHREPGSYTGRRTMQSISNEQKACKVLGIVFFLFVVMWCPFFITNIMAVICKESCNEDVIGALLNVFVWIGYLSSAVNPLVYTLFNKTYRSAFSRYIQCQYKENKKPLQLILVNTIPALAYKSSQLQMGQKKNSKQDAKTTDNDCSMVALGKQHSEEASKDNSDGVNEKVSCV
T3 sequence (P32305 whole entry): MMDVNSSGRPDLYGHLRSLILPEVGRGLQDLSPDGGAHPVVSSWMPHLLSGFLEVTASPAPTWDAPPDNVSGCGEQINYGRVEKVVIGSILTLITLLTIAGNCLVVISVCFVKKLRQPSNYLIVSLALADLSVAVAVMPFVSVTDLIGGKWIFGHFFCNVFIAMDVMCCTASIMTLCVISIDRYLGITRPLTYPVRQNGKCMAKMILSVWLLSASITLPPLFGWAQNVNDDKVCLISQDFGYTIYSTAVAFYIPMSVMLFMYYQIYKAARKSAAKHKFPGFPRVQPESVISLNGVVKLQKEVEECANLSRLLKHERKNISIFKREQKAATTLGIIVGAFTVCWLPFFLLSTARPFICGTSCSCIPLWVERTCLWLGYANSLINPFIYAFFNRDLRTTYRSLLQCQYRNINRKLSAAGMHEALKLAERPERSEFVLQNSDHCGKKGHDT

SMILES	Ki [1] [µM]	Ki [2] [µM]	Ki (rat 5-HT7a receptor) [µM]	Ki [3] [µM]	Ki [4] [µM]
CCN(CC)c1nc2c(c(-c3ccc(F)cc3)n1)CCCNC2 [Example 1, Diethyl-[4-(4-fluoro-phenyl)-6,7,8,9-tetrahydro-5H-pyrimido[4,5-c]azepin-2-yl]-amine]	0.032	0.3	0.47	2.26	0.02
CCN(CC)c1nc2c(c(-c3ccc(C)cc3)n1)CCCNC2 [Example 2]	0.025	0.43	0.22	0.3	0.17
CCN(CC)c1nc2c(c(-c3ccc(OC)cc3)n1)CCCNC2 [Example 3, Diethyl-[4-(4-methoxy-phenyl)-6,7,8,9-tetrahydro-5H-pyrimido[4,5-c]azepin-2-yl]-amine]	0.02	0.4	0.24	0.16	0.2
CCN(CC)c1nc2c(c(-c3ccc(C#N)cc3)n1)CCCNC2 [Example 4, 4-(2-Diethylamino-6,7,8,9-tetrahydro-5H-pyrimido[4,5-c]azepin-4-yl)-benzonitrile]	0.1	9	0.92	3.75	0.24
COc1ccc(-c2nc(N3CCCCC3C)nc3c2CCCNC3)cc1 (stereo not shown) [Example 5, 4-(4-Methoxy-phenyl)-2-(2-methyl-piperidin-1-yl)-6,7,8,9-tetrahydro-5H-pyrimido[4,5-c]azepine hydrochloride]	0.2	1.8	> 10	0.127	1.5
CC1CCCCN1c1nc2c(c(-c3ccc(F)cc3)n1)CCCNC2 (stereo not shown) [Example 6, 4-(4-Fluoro-phenyl)-2-(2-methyl-piperidin-1-yl)-6,7,8,9-tetrahydro-5H-pyrimido[4,5-c]azepine]	0.2	1	> 10	0.31	0.2
CC1CCCCN1c1nc2c(c(-c3ccc(C#N)cc3)n1)CCCNC2 (stereo not shown) [Example 7, 4-[2-(2-Methyl-piperidin-1-yl)-6,7,8,9-tetrahydro-5H-pyrimido[4,5-c]azepin-4-yl]-benzonitrile]	0.28	3.2	> 10	1.24	0.4
Cc1ccc(-c2nc(N3CCCCC3C)nc3c2CCCNC3)cc1 (stereo not shown) [Example 8, 2-(2-Methyl-piperidin-1-yl)-4-p-tolyl-6,7,8,9-tetrahydro-5H-pyrimido[4,5-c]azepine]	0.1	2	0.5	0.068	0.18
CCN(CC)c1nc2c(c(-c3ccc(F)cc3)n1)CCNCC2 [Example 9, Diethyl-[4-(4-fluoro-phenyl)-6,7,8,9-tetrahydro-5H-pyrimido[4,5-d]azepin-2-yl]-amine hydrochloride]	0.007	0.04	0.029	0.084	0.02
CCN(CC)c1nc2c(c(-c3ccncc3)n1)CCNCC2 [Example 10, Diethyl-(4-pyridin-4-yl-6,7,8,9-tetrahydro-5H-pyrimido[4,5-d]azepin-2-yl)-amine hydrochloride]	0.05	> 10	1.2	1.46	0.5
CCN(CC)c1nc2c(c(-c3ccc(C)cc3)n1)CCNCC2 [Example 11, Diethyl-(4-p-tolyl-6,7,8,9-tetrahydro-5H-pyrimido[4,5-d]azepin-2-yl)-amine hydrochloride]	0.005	0.063	0.04	0.025	0.004
CCN(CC)c1nc2c(c(-c3ccsc3)n1)CCNCC2 [Example 12, Diethyl-(4-thiophen-3-yl-6,7,8,9-tetrahydro-5H-pyrimido[4,5-d]azepin-2-yl)-amine hydrochloride]	0.0032	0.05	0.04	0.08	0.03
Cc1ccc(-c2nc(N3CCCCCC3)nc3c2CCN(Cc2ccccc2)C3)cc1 [Example 33, 2-Azepan-1-yl-7-benzyl-4-p-tolyl-5,6,7,8-tetrahydro-pyrido[3,4-d]pyrimidine]	0.8	3.2	> 10		0.54
Cc1ccc(-c2nc(N3CCCCCC3)nc3c2CCNC3)cc1 [Example 34, 2-Azepan-1-yl-4-p-tolyl-5,6,7,8-tetrahydro-pyrido[3,4-d]pyrimidine]	0.04	0.27	0.09		0.018
COc1ccc(-c2nc(N3CCCCCC3)nc3c2CCN(Cc2ccccc2)C3)cc1 [Example 35, 2-Azepan-1-yl-7-benzyl-4-(4-methoxy-phenyl)-5,6,7,8-tetrahydro-pyrido[3,4-d]pyrimidine]	0.7	> 10	> 10		> 10
COc1ccc(-c2nc(N3CCCCCC3)nc3c2CCNC3)cc1 [Example 36, 2-Azepan-1-yl-4-(4-methoxy-phenyl)-5,6,7,8-tetrahydro-pyrido[3,4-d]pyrimidine]	0.1	0.32	0.21		0.16
N#Cc1ccc(-c2nc(N3CCCCCC3)nc3c2CCN(Cc2ccccc2)C3)cc1 [Example 37, 4-(2-Azepan-1-yl-7-benzyl-5,6,7,8-tetrahydro-pyrido[3,4-d]pyrimidin-4-yl)-benzonitrile]	1.3	> 10	> 10		2.4
Fc1ccc(-c2nc(N3CCCC3)nc3c2CNCC3)cc1 [Example 41, 4-(4-Fluoro-phenyl)-2-pyrrolidin-1-yl-5,6,7,8-tetrahydro-pyrido[4,3-d]pyrimidine hydrochloride]	0.75	0.94	> 10		0.025
CCN(C)c1nc2c(c(-c3ccc(F)cc3)n1)CNCC2 [Example 44, Ethyl-[4-(4-fluoro-phenyl)-5,6,7,8-tetrahydro-pyrido[4,3-d]pyrimidin-2-yl]-methyl-amine hydrochloride]	0.18	0.3	2		0.0095
CCN(CC)c1nc2c(c(-c3ccc(Cl)cc3)n1)CNCC2 [Example 46, [4-(4-Chloro-phenyl)-5,6,7,8-tetrahydro-pyrido[4,3-d]pyrimidin-2-yl]-diethyl-amine hydrochloride]	0.2	0.25	0.1		0.03
Cc1ccc(-c2nc(N3CCCC3)nc3c2CNCC3)cc1 [Example 47, 2-Pyrrolidin-1-yl-4-p-tolyl-5,6,7,8-tetrahydro-pyrido[4,3-d]pyrimidine]	0.5	1.6	> 10		0.12
CC1CCCN1c1nc2c(c(-c3ccc(Cl)cc3)n1)CCNCC2 (stereo not shown) [Example 54, 4-(4-Chloro-phenyl)-2-(2-methyl-pyrrolidin-1-yl)-6,7,8,9-tetrahydro-5H-pyrimido[4,5-d]azepine]	0.005	0.089	0.37		0.03
Clc1ccc(-c2nc(NCc3ccccc3)nc3c2CCNCC3)cc1 [Example 56, Benzyl-[4-(4-chloro-phenyl)-6,7,8,9-tetrahydro-5H-pyrimido[4,5-d]azepin-2-yl]-amine]	0.045	0.04	9		0.0014
CCN(CC)c1nc2c(c(-c3ccc(Cl)cc3)n1)CNCCC2 [Example 59, [4-(4-Chloro-phenyl)-6,7,8,9-tetrahydro-5H-1,3,6-triaza-benzocyclohepten-2-yl]-diethyl-amine hydrochloride]			> 10	1.48	
